For one molecule, Kd results are on record in patent US6965113B2, “Fluorescence intensity multiple distributions analysis: concurrent determination of diffusion times and molecular brightness” (Evotec AG, priority 2000, dated 2005).

Molecules are shown by their SMILES. Read-outs that look alike come from different tables or passages of the source. Square brackets hold non-standard residues; d marks the D form. Peptide text beside a SMILES is read from it. * marks the point of attachment. X1 = CC[N+]1=C(C=CC=CC=C2N(CCCCCC(=O)*)c3ccc(S(=O)(=O)O)cc3C2(C)C)C(C)(C)c2cc(S(=O)(=O)[O-])ccc21; pY = N[C@@H](Cc1ccc(OP(=O)(O)O)cc1)C(=O)O

In one experiment the target is T1, SH2 domain of Grb2 (Homo sapiens, UniProt P62993).
T1 construct: as a model system, the bare SH2 domain (14.3 kDa) has been chosen; made in house
T1 sequence (P62993 60-152 limits assumed): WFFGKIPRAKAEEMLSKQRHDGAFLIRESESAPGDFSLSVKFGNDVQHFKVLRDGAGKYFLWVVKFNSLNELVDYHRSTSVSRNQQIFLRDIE
Briefly: Experiment 1: titration of SH2 against constant 0.4 nM pTyr-Val-Asn-Val-Lys(Cy5), confocal fluorescence fluctuation measurement (FIMDA, FCS, FIDA), hyperbolic fit of fraction bound. To be noted: 0.4 nM conjugate, same buffer, T=20° C., read-out: binding constant KD for the SH2-phosphopeptide interaction. The text has this:
The central optical part of the present FIMDA experiment is a confocal microscope as it is used in fluorescence correlation spectroscopy (Koppel et al., Biophys. J. 16: 1315-1329, 1976: Rigler et al., Eur. Biophys. J. 22: 169-175, 1993). For the excitation of fluorescence, a beam from a continuous wave laser is attenuated to ˜800 μW by neutral density filters, passes a beam expander, and is directed to the microscope objective (UApo/340, 40x, N.A. 1.15, Olympus Optical Co. Ltd., Tokyo, Japan) by a dichroic mirror. Fluorescence is collected by the said objective through the dichroic mirror, a spectral band-pass filter, and is focused to a confocal pinhole, which serves to reject the out-of-focus light. The light, which passes the pinhole, is detected by a silicon photon counting module (SPCM-AQ-131, EG&G Optoelectronics, Vaudreuil, Canada). […]
A series of simultaneously measured or simulated distributions is globally fitted using a Marquardt algorithm. […] Theoretical distributions are calculated using exactly the same algorithm as in FIDA, except that each species has an individual apparent concentration and an apparent brightness at each time window, calculated according to Eqs. […]

Experiment [1] addresses T2, SH2-domain of the adapter protein Grb2 (Homo sapiens, UniProt P62993).
T2 construct: as a model system, the bare SH2 domain (14.3 kDa) has been chosen; made in house
Briefly: Experiment 2: titration of SH2 against constant 0.8 nM pTyr-Val-Asn-Val-Lys(Cy5), FCS, FIDA and FIMDA data collected simultaneously. Type of experiment: binding. Particulars: 0.8 nM conjugate, T=20° C. The method, then: Since the diffusion time of the dye is […] (compared to 40 μs) it spends only a short time in the confocal volume and its apparent brightness decreases. From this information the diffusion time can be calculated from a global fit.
The viability of the present invention was tested by measurements characterizing a ligand-protein interaction. The minimal peptide sequence pTyr-Val-Asn (originating from tyrosine kinase growth factor receptors) binds to the SH2-domain of the adapter protein Grb2. The conjugate pTyr-Val-Asn-Val-Lys(Cy5) was synthesized as binding partner for SH2. All measurements were performed under identical conditions (e.g. same buffer: sterile filter water, 50 mM Na-phosphate buffer pH 7.8, 50 mM NaCl and 0.05% Pluronic; T=20° C.). To obtain the KD value for the ligand protein interaction a titration experiment was carried out. The pTyr-Val-Asn-Val-Lys(Cy5) concentration was kept constant at 0.8 nM, while SH2 was subject to titration (0.01, 0.03, 0.1, 0.3, 1, 3, 10, 30, 100, and 130 μM). Each sample was measured 30 times keeping the acquisition time at 30 seconds per measurement. FCS (prior art), FIDA (prior art) and FIMDA (present invention) data were collected simultaneously in order to compare all three methods. It becomes clear that FIMDA is able to resolve both, the specific brightness and the diffusion time of both species (ligand and complex). Therefore, FIMDA is a more versatile tool than FCS or FIDA and will save assay development time. Comparing the standard deviations of all methods in determining brightness and diffusion time FIMDA is better or at least as good as FCS or FIDA.

T2 sequence (P62993 60-152 limits assumed): as above

For orientation: Kd means the concentration at which binding is half-saturated. Consider `CC[N+]1=C(C=CC=CC=C2N(CCCCCC(=O)NCCCC[C@H](NC(=O)[C@@H](NC(=O)[C@H](CC(N)=O)NC(=O)[C@@H](NC(=O)[C@@H](N)Cc3ccc(OP(=O)(O)O)cc3)C(C)C)C(C)C)C(=O)O)c3ccc(S(=O)(=O)O)cc3C2(C)C)C(C)(C)c2cc(S(=O)(=O)[O-])ccc21` [pTyr-Val-Asn-Val-Lys(Cy5)] (H-[pY]VNVK(X1)-OH; N-terminus and C-terminus assumed), for which the Kd at SH2 domain of Grb2 (FCS) is 2.16 ± 0.19 µM; at SH2 domain of Grb2 (FIDA), 1.6 ± 0.19 µM; in experiment [1] (FCS, same buffer) it was 2.26 ± 0.28 µM; in experiment [1] (FIDA, same buffer), 1.7 ± 0.29 µM; in experiment [1] (FIMDA, 50 mM Na-phosphate buffer pH 7.8, 50 mM NaCl, 0.05% Pluronic), 1.68 ± 0.27 µM.
